Consider 20 molecules from patent US20240317725A1, “LPA1 SMALL MOLECULE ANTAGONIST” (TUOJIE BIOTECH (SHANGHAI) CO., LTD., priority 2021, published 2024).

As a reminder, the IC50 is the concentration that gives 50% inhibition.

The target of this test is T1, human lysophosphatidic acid receptor 1 (LPAR1) (Homo sapiens, UniProt Q92633).
T1 construct: host or cells: CHO-K1 (Chinese hamster ovary K1) cells, CHO-K1/LPA1R, kept under hygromycin B selection
T1 sequence (Q92633 whole entry): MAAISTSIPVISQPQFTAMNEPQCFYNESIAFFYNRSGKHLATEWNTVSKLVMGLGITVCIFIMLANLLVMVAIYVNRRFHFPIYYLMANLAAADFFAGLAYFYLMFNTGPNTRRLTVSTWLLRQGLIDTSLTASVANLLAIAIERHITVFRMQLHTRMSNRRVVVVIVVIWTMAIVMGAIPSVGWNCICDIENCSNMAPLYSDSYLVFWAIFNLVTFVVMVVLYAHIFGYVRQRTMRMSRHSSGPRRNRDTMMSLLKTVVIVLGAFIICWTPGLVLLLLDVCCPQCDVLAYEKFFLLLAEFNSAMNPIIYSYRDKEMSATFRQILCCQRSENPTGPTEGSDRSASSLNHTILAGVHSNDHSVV
Description: FLIPR test of antagonist properties: inhibition of LPA-induced intracellular calcium elevation in CHO-K1 cells expressing hLPAR1. The test is classed as cell-based. The conditions noted are these: FLIPR calcium assay, CHO-K1/LPA1R cells, LPA at EC80. As for the experimental part: The antagonist properties of the compounds of the present disclosure were tested using the FLIPR (fluorometric imaging plate reader) method. The compounds are inhibitors of intracellular calcium elevation induced by activation of hLPARI (human lysophosphatidic acid receptor 1) expressed in CHO-K1 cells (Chinese hamster ovary K1 cells, HDB).
2.1. Reaction buffer: HBSS+20 mM HEPES+0.1% fatty acid-free BSA+0.001% F-127
2.2. 50×Red dye: (a red dye for blocking background signals in cells) prepared by: weighing out 4 g of tartrazine and 10.2 g of acid red and dissolving them in 100 mL of H2O.
2.3. Fluo-8 staining mixture: 4 mL of reaction buffer, 32 μL of fluo-8, 320 μL of 50×Red dye, and 40 μL of probenecid.
3.1. LPA: dissolved in DPBS (containing 0.1% fatty acid-free BSA) to prepare a 0.8 μM stock solution, and the solution was aliquoted and stored at −20° C.
3.2. Test compound preparation: The test compounds were dissolved in DMSO to prepare 10 mM stock solutions, and the solutions were stored at −20° C. In the experiment, the compounds were first gradient-diluted with DMSO (initial concentration of 50 μM, 3-fold dilution, 10 points) to prepare 200×compound solutions. The compound solutions were then diluted with reaction buffer to give 5×compound solutions, and the solutions were transferred to a 384-well plate (Cat. No. 6008590) using Bravo.
4.1. CHO-K1/LPA1R cells were cultured in a cell culture medium (F-12+10% FBS+400 μg/mL hygromycin B).
4.2. When the cell confluence reached 80%, the cells were digested with 0.25% pancreatin.
4.3. When the cells became round, the digestion was stopped with the medium F-12 (10% FBS), and the cells were counted. Then the cell culture was diluted with F-12 (10% FBS) to give a cell suspension with a density of 6.7×10^5 cells/mL.
4.4. The cell suspension was added to a 384-well black cell culture plate at 30 µL/well using a Multidrop auto-dispenser, and the plate was incubated in a 37° C., 5% CO2 incubator for 20-24 h. The medium was changed to a serum-free F-12 medium, and the cells were starved for 24 h.
4.5. Dose experiment for testing LPA. Gradient dilutions of 6×LPA solution (initial concentration of 60 μM, 3-fold dilution, 10 points) were prepared with reaction buffer. The medium in the 384-well black cell culture plate was discarded and changed to reaction buffer. 10 μL of 5% DMSO reaction buffer was added, and 10 μL of Fluo-8 staining mixture was then added. The plate was incubated in the dark in a 37° C., 5% CO2 incubator for 0.5 h.
4.6. FLIPR was correspondingly programmed, the 6×LPA gradient solutions were added, and readings were taken. Two-minute data were collected.
4.7. A reaction curve was obtained from the numerical values of LPA, and the concentration of LPA at EC80 was calculated. A 6×LPA solution was prepared in a 384-well plate (Cat. No. 6008590), and HPE and ZPE were added to corresponding wells. HPE (one hundred per cent effect) was 60 μM LPA, and ZPE (zero per cent effect) was reaction buffer.
4.8. Testing of compounds. The medium in the 384-well black cell culture plate was discarded and changed to reaction buffer. 10 μL of 5×compound solution was transferred using Bravo, and then 10 μL of Fluo-8 staining mixture was added immediately. The plate was incubated in the dark in a 37° C., 5% CO2 incubator for 0.5 h.
4.9. FLIPR was correspondingly programmed, the 6×LPA solution was added, and readings were taken. Two-minute data were collected.
4.10. Finally, the output fluorescence counts were analyzed, and IC50 was calculated for the compounds.
In the case of `COCc1ccnc(OCc2c(-c3ccc(OC4CC5CCC(C)(C(=O)O)C5C4)c(C)n3)nnn2C)n1` (single isomer, unassigned) [Compound 14-P2, 5-((6-(5-(((4-(Methoxymethyl)pyrimidin-2-yl)oxy)methyl)-1-methyl-1H-1,2,3-triazol-4-yl)-2-methylpyridin-3-yl)oxy)-1-methyloctahydropentalene-1-carboxylic acid], the IC50 was over 10 µM.
Then `Cc1nc(-c2nnn(C)c2COc2nccc(O[C@H]3CCOC3)n2)ccc1OC1CC2CCC(C(=O)O)C2C1` (single isomer, unassigned) [Compound 9-P2], with 0.853 µM; and `CCOCc1ccnc(OCc2c(-c3ccc(OC4CC5CCC(C(=O)O)C5C4)c(C)n3)nnn2C)n1` (single isomer, unassigned) [Compound 13-P1, 5-((6-(5-(((4-(Ethoxymethyl)pyrimidin-2-yl)oxy)methyl)-1-methyl-1H-1,2,3-triazol-4-yl)-2-methylpyridin-3-yl)oxy)octahydropentalene-1-carboxylic acid], with 1.09 µM; and `Cc1nc(-c2nnn(C)c2COc2nccc(C(F)(F)F)n2)ccc1O[C@H]1CCC[C@H](C(=O)O)C1` [Compound 12, (1S,3S)-3-((2-Methyl-6-(1-methyl-5-(((4-(trifluoromethyl)pyrimidin-2-vl)oxy)methyl)-1H-1,2,3-triazol-4-yl)pyridin-3-yl)oxy)cyclohexane-1-carboxylic acid], with 0.075 µM.
Then `CCc1cc(OCc2c(-c3ccc(OC4CC5CCC(C(=O)O)C5C4)c(C)n3)nnn2C)ncn1` (single isomer, unassigned) [Compound 4-P2, 5-((6-(5-(((6-Ethylpyrimidin-4-yl)oxy)methyl)-1-methyl-1H-1,2,3-triazol-4-yl)-2-methylpyridin-3-yl)oxy)octahydropentalene-1-carboxylic acid], with 0.0358 µM.
Then `Cc1nc(-c2nnn(C)c2COc2nccc(C(F)F)n2)ccc1OC1CC2CCC(C(=O)O)C2C1` (centres unmarked) [Compound 7, 5-((6-(5-(((4-(Difluoromethyl)pyrimidin-2-yl)oxy)methyl)-1-methyl-1H-1,2,3-triazol-4-yl)-2-methylpyridin-3-yl)oxy)octahydropentalene-1-carboxylic acid], with 0.0939 µM.
Regarding `CCc1cc(OCc2c(-c3ccc(OC4CC5CCC(C(=O)O)C5C4)c(C)n3)nnn2C)ncn1` (single isomer, unassigned) [Compound 4-P1, 5-((6-(5-(((6-Ethylpyrimidin-4-yl)oxy)methyl)-1-methyl-1H-1,2,3-triazol-4-yl)-2-methylpyridin-3-yl)oxy)octahydropentalene-1-carboxylic acid], the IC50 stood at 0.746 µM.
The value for `Cc1nc(-c2nnn(C)c2COc2nccc(O[C@@H]3CCOC3)n2)ccc1OC1CC2CCC(C(=O)O)C2C1` (single isomer, unassigned) [Compound 8-P2] was 0.502 µM; that for `CCCN(C)C(=O)OCc1c(-c2ccc(O[C@H]3CCC[C@H](C(=O)O)C3)c(C)n2)nnn1C` [BMS986278, reference compound] was 0.0606 µM.
Then `Cc1nc(-c2nnn(C)c2COc2noc(C3CC3)n2)ccc1OC1CC2CCC(C(=O)O)C2C1` (single isomer, unassigned) [Compound 2-P2, 5-((6-(5-(((5-Cyclopropyl-1,2,4-oxadiazol-3-yl)oxy)methyl)-1-methyl-1H-1,2,3-triazol-4-yl)-2-methylpyridin-3-yl)oxy)octahydropentalene-1-carboxylic acid], with 2.69 µM; and `COCc1ccnc(OCc2c(-c3ccc(OC4CC5CCC(F)(C(=O)O)C5C4)c(C)n3)nnn2C)n1` (single isomer, unassigned) [Compound 5-P1, 1-Fluoro-5-((6-(5-(((4-(methoxymethyl)pyrimidin-2-yl)oxy)methyl)-1-methyl-1H-1,2,3-triazol-4-yl)-2-methylpyridin-3-yl)oxy)octahydropentalene-1-carboxylic acid], with 0.0156 µM.
With `COCc1ccnc(OCc2c(-c3ccc(OC4CC5CCC(C(=O)O)C5C4)c(C)n3)nnn2C)n1` (single isomer, unassigned) [Compound 3-P2, 5-((6-(5-(((4-(Methoxymethyl)pyrimidin-2-yl)oxy)methyl)-1-methyl-1H-1,2,3-triazol-4-yl)-2-methylpyridin-3-yl)oxy)octahydropentalene-1-carboxylic acid], the IC50 turned out to be 1.38 µM.
Regarding `Cc1nc(-c2nnn(C)c2COc2nccc(C(C)(C)O)n2)ccc1OC1CC2CCC(C(=O)O)C2C1` (single isomer, unassigned) [Compound 10-P1, 5-((6-(5-(((4-(2-Hydroxypropan-2-yl)pyrimidin-2-yl)oxy)methyl)-1-methyl-1H-1,2,3-triazol-4-yl)-2-methylpyridin-3-yl)oxy)octahydropentalene-1-carboxylic acid], the half-inhibitory concentration (IC50) was 0.0887 µM.
Then `Cc1nc(-c2nnn(C)c2COc2nccc(C(F)(F)F)n2)ccc1OC1CC2CCC(C(=O)O)C2C1` (single isomer, unassigned) [Compound 1-P2, 5-((2-Methyl-6-(1-methyl-5-(((4-(trifluoromethyl)pyrimidin-2-yl)oxy)methyl)-1H-1,2,3-triazol-4-yl)pyridin-3-yl)oxy)octahydropentalene-1-carboxylic acid], with 0.659 µM.
The value for `Cc1nc(-c2nnn(C)c2COc2nccc(O[C@@H]3CCOC3)n2)ccc1OC1CC2CCC(C(=O)O)C2C1` (single isomer, unassigned) [Compound 8-P1] was 0.028 µM; that for `CCOCc1ccnc(OCc2c(-c3ccc(OC4CC5CCC(C(=O)O)C5C4)c(C)n3)nnn2C)n1` (single isomer, unassigned) [Compound 13-P2, 5-((6-(5-(((4-(Ethoxymethyl)pyrimidin-2-yl)oxy)methyl)-1-methyl-1H-1,2,3-triazol-4-yl)-2-methylpyridin-3-yl)oxy)octahydropentalene-1-carboxylic acid] was 0.0279 µM.
`COCc1ccnc(OCc2c(-c3ccc(OC4CC5CCC(C)(C(=O)O)C5C4)c(C)n3)nnn2C)n1` (single isomer, unassigned) [Compound 14-P1, 5-((6-(5-(((4-(Methoxymethyl)pyrimidin-2-yl)oxy)methyl)-1-methyl-1H-1,2,3-triazol-4-yl)-2-methylpyridin-3-yl)oxy)-1-methyloctahydropentalene-1-carboxylic acid]: the IC50 was 0.0415 µM.
Then `Cc1nc(-c2nnn(C)c2COc2nccc(C(C)(C)O)n2)ccc1OC1CC2CCC(C(=O)O)C2C1` (single isomer, unassigned) [Compound 10-P2, 5-((6-(5-(((4-(2-Hydroxypropan-2-yl)pyrimidin-2-yl)oxy)methyl)-1-methyl-1H-1,2,3-triazol-4-yl)-2-methylpyridin-3-yl)oxy)octahydropentalene-1-carboxylic acid], with 1.86 µM; and `COc1ccnc(OCc2c(-c3ccc(OC4CC5CCC(C(=O)O)C5C4)c(C)n3)nnn2C)n1` (single isomer, unassigned) [Compound 11-P2, 5-((6-(5-(((4-Methoxypyrimidin-2-yl)oxy)methyl)-1-methyl-1H-1,2,3-triazol-4-yl)-2-methylpyridin-3-yl)oxy)octahydropentalene-1-carboxylic acid], with 0.0506 µM; and `Cc1nc(-c2nnn(C)c2COc2noc(C3CC3)n2)ccc1OC1CC2CCC(C(=O)O)C2C1` (single isomer, unassigned) [Compound 2-P1, 5-((6-(5-(((5-Cyclopropyl-1,2,4-oxadiazol-3-yl)oxy)methyl)-1-methyl-1H-1,2,3-triazol-4-yl)-2-methylpyridin-3-yl)oxy)octahydropentalene-1-carboxylic acid], with 0.026 µM.
